Values of other authors as cited in patent US20070072940A1, “Use of quinol derivatives thereof for cosmetic, dietary supplement or pharmaceutical compositions and compositions thereby obtained” (priority 2005, published 2007).

Tests used:
B. subtilis = settings: in vitro
S. aureus = settings: in vitro
fibrin = settings: through an action on the polymerization of fibrin
[1] = system: lipid peroxidation in liposomes
[2] = results combined with previous research
[3] = system: skin trauma such as bruising or blemishes; settings: applied topically
[4] = system: nutritional muscular dystrophy
[5] = system: low density lipoprotein lipids

## Menaquinol
Free radical
  free radical scavenging ability, comparison: greater than that of alpha tocopherol quinol, plastoquinol, and alpha tocopherol

## C/C(=C\Cc1c(C)c(O)c2ccccc2c1O)CCC[C@H](C)CCC[C@H](C)CCCC(C)C [Phylloquinol]
Free radical
  free radical scavenging ability, comparison: greater than that of alpha tocopherol quinol, plastoquinol, and alpha tocopherol

## CC(C)=CCC/C(C)=C/CC/C(C)=C/CC/C(C)=C/CC/C(C)=C/CC/C(C)=C/CC/C(C)=C/CC/C(C)=C/CC/C(C)=C/Cc1cc(O)c(C)c(C)c1O [Plastoquinol]
Free radical
  free radical scavenging ability, comparison: greater than that of ubiquinol and alpha tocopherol

## Cc1c(C)c2c(c(C)c1OP(=O)(O)O)CC[C@@](C)(CCC[C@H](C)CCC[C@H](C)CCCC(C)C)O2 [DL alpha tocopherol phosphate]
B. subtilis
  antimicrobial action on B. subtilis: antimicrobial action
S. aureus
  antimicrobial action on S. aureus: antimicrobial action
fibrin
  anticoagulant action: anticoagulant action

## CC1=C(C)C(=O)C(CC[C@](C)(O)CCC[C@H](C)CCC[C@H](C)CCCC(C)C)=C(C)C1=O [alpha tocopherol quinone]
[1]
  inhibition of lipid peroxidation: shown to inhibit lipid peroxidation
[2]
  toxicity: non-toxic

## CC1=C(C/C=C(\C)CCC[C@H](C)CCC[C@H](C)CCCC(C)C)C(=O)c2ccccc2C1=O [Vitamin K, Phytonadione]
[3]
  reduction of severity of skin trauma: ability to reduce the severity of skin trauma

## Cc1c(C)c(O)c(CC[C@](C)(O)CCC[C@H](C)CCC[C@H](C)CCCC(C)C)c(C)c1O [alpha tocopherol quinol]
[1]
  inhibition of lipid peroxidation: shown to inhibit lipid peroxidation
[1]; liposomes, compared with alpha tocopherol quinone
  inhibition of lipid peroxidation in liposomes, comparison: superior inhibition of lipid peroxidation in liposomes
[2]
  toxicity: non-toxic
Free radical
  free radical scavenging ability, comparison: greater than that of ubiquinol and alpha tocopherol
[4]; rabbit, injectable and oral
  prevention and treatment of nutritional muscular dystrophy: could prevent and treat nutritional muscular dystrophy
[4]; vitamin E deficiency
  prevention of creatinuria and loss of weight caused by vitamin E deficiency: could prevent creatinuria and loss of weight
[5]
  interception of aqueous peroxyl radicals: directly intercepted aqueous peroxyl radicals
[5]; associated with LDL
  reduction of lipoprotein ubiquinone to ubiquinol: instantaneously reduce the lipoprotein ubiquinone to ubiquinol
[5]; in oxidizing LDL
  quenching of alpha tocopheroxyl radicals: rapidly quenched alpha tocopheroxyl radicals
[5]; in vitro
  inhibition of radical initiated oxidation of low density lipoprotein lipids: efficient multifunctional inhibitor
